From PMC6370856, “Peptidyl prolyl cis/trans isomerase activity on the cell surface correlates with extracellular matrix development” (Communications Biology, 2019)

Tests used:
fibrin hydrogel = assay: Stiffness (storage modulus) of fibrin gel by rheometer
Experimental: To minimize sample evaporation at 37 °C, a tissue paper wet in HEPEs buffer (10 mM, pH 7.8) was placed inside the H-PTD chamber to increase the humidity. […] The cone and plate were treated with plasma for 5 min to increase the hydrophilicity of the metal surface.
Fibrin gel: Fibrinogen (Shanghai Laishi Xuezhipin Limited Company) was dissolved in PBS with a concentration of 22.2 mg mL^−1 overnight at room temperature with gentle shaking and aliquoted in protein low-binding tubes (45 µL per tube). […] Fifty microliters of thrombin (4 EU mL^−1 in PBS with 1.8 mM CaCl2) was added and pipetted up and down ten times. Then, it was transferred to the rheometer plate for measurement. […] For each condition, two independent experiments were performed (Fig. 1a and Supplementary Fig. 1).

Pin1 = target: T1, Pin1 (Homo sapiens, UniProt Q13526); assay: Liquid chromatography-based protease-coupled PPIase activity assay, Pin1 (nagarse); format: biochemical
T1 construct: host or cells: Escherichia coli BL21 (DE3)
T1 sequence (Q13526 with tags, fused parts or gaps): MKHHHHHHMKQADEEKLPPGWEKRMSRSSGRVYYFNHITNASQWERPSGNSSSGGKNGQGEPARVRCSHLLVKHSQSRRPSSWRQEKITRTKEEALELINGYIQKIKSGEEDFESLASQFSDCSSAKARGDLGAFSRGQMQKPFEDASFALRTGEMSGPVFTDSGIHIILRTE
Description: A small gap was opened on

[1] = system: PBMC samples from healthy donors, mixed; assay: PACS in a two-way mixed lymphocyte reaction; format: cell-based, human; details: for effect on PACS in two-way mixed lymphocyte reaction: PBMCs treated with immunosuppressive drug; for cell surface PPIase activity k, Exp. 1 / cell surface PPIase activity k, Exp. 2 / cell surface PPIase activity k, Exp. 3 / cell surface PPIase activity k, Exp. 4 / cell surface PPIase activity k, Mean: 24 hours
Experimental: PACS were measured with four PBMC samples from healthy donors or with all six different combinations. […] After 24 h, diminished activity was detected in all combinations (Fig. 6d). For two combinations, no trace of activity could be detected, resembling the results from some primary samples of leukemia cells.
Mixed lymphocyte reaction is a routine assay used to measure the safety of implantable materials and the effect of immunosuppressive treatments. The PACS assay could become an alternative test, within a relatively short period of time, avoiding the use of biochemical reagents such as antibodies.
The assay was performed in a cold room. If there was no additional description, the assays were performed in CO2-independent medium supplemented with 10% (v/v) h.i. FBS (medium-h.i. FBS) and 2mM L-glutamine. […] FBS to a final concentration of 120 µg mL^−1 (two times substrate stock). α-Chymotrypsin was prepared freshly. Fifteen micrograms of α-chymotrypsin was dissolved in 2 mL medium-h.i. FBS, and the pH was adjusted with 10 µL 1 M NaOH. Five millimole CsA, SLF, and CsA/SLF mixture were prepared in DMSO.
One or more flasks of cells (5 mL per flask, depending on the maximum culture density of each cell line) were harvested by centrifuging at 1000 rpm for 3 min. To remove PPIases from the supernatant originating from the culture, cells were washed one time with 2 mL CO2-independent medium and were resuspended in 1.6 mL of CO2-independent medium with substrate. The cells were centrifuged again, and then 800 µL of the supernatant was taken. The residual volume containing cells was suspended. Nineteen microliters of the cells or supernatant was pipetted to a non-binding 96-well microplate to measure PPIase activity. Four different conditions were performed. […] The plate was kept for 5 min without agitation. The activity measurements were triggered by adding 20 µL of α-chymotrypsin at time 0 min, followed by 1.5 min agitation, and the reaction was stopped after 2 min with 80 µL 20% acetic acid, followed by 15 rounds of up and down pipetting mixing. Four independent experiments were performed on the same day.

[2] = system: mixture of Jurkat T lymphocyte and the plasma protein fibrinogen; assay: Viscosity/shear rate measurement of Jurkat cells in fibrinogen solution; format: cell-based
Description: Since PPIases can catalyze the dynamic rearrangement of the dense ECM polymer network, we speculated that PPIases could also affect the dynamic interaction between cells and the ECM. Probing the influence of transient prolyl isomerization on cell–ECM interaction is difficult. Studying cell adhesion by the treatment of PPIase inhibitors cannot distinguish extracellular and intracellular factors as well as receptor-mediated signaling due to the long assay time. In order to reflect the highly dynamic process, we measured the viscosity of plasma protein solution with cells. Blood is a shear-thinning non-Newtonian fluid, and its viscosity is largely affected by the interaction between cells and plasma proteins, for example, the coagulation process. We investigated whether the catalyzed isomerization could also influence the interaction between blood cells and plasma proteins, thus affecting the viscosity. We performed viscosity/shear rate measurements using a mixture of Jurkat T lymphocyte and the plasma protein fibrinogen.
The machine used for viscosity is the same as for stiffness measurements. To 30 µL of 4 mg mL^−1 fibrinogen, an equal volume of Jurkat cells (8 × 10^7 mL^−1 in PBS, washed two times with PBS before used; Jurkat cells ocupated around 20% of the volume) was added. The mixture was pipetted up and down six times, kept on ice for 10 min, and then transferred to the rheometer plater (25 °C) for measurements. The plate temperature was raised to 37 °C. The measurement was performed by increasing shear rate ramp liner from 100 to 1000 s^−1. Hundred data points were collected during the measurements. For each condition, two independent experiments were performed (Fig. 1c and Supplementary Fig. 3).

Row | Compound | effect on PACS in two-way mixed lymphocyte reaction [1] | cell surface PPIase activity k, Exp. 1 ([1]; healthy donors ab mixed) | cell surface PPIase activity k, Exp. 2 ([1]; healthy donors ab mixed) | cell surface PPIase activity k, Exp. 3 ([1]; healthy donors ab mixed) | cell surface PPIase activity k, Exp. 4 ([1]; healthy donors ab mixed) | cell surface PPIase activity k, Mean ([1]; healthy donors ab mixed) | cell surface PPIase activity k, Exp. 2 ([1]; healthy donors ac mixed) | cell surface PPIase activity k, Exp. 3 ([1]; healthy donors ac mixed) | cell surface PPIase activity k, Exp. 4 ([1]; healthy donors ac mixed) | cell surface PPIase activity k, Mean ([1]; healthy donors ac mixed) | cell surface PPIase activity k, Exp. 1 ([1]; healthy donors ad mixed) | cell surface PPIase activity k, Exp. 3 ([1]; healthy donors ad mixed) | cell surface PPIase activity k, Exp. 4 ([1]; healthy donors ad mixed) | cell surface PPIase activity k, Mean ([1]; healthy donors ad mixed) | cell surface PPIase activity k, Exp. 1 ([1]; healthy donors bc mixed) | cell surface PPIase activity k, Exp. 3 ([1]; healthy donors bc mixed) | cell surface PPIase activity k, Exp. 4 ([1]; healthy donors bc mixed) | cell surface PPIase activity k, Mean ([1]; healthy donors bc mixed) | cell surface PPIase activity k, Exp. 1 ([1]; healthy donors bd mixed) | cell surface PPIase activity k, Exp. 2 ([1]; healthy donors bd mixed) | also measured
1 | CypA R55A: inactive mutant CypA R55A (a gift from Gunter Fischer) | – | – | – | – | – | – | – | – | – | – | – | – | – | – | – | – | – | – | – | – | effect on fibrin gelation as compared to the wild-type CypA (fibrin hydrogel): remarkably reduced
2 | O=P(O)(O)O [PO4-, inorganic phosphate, reference compound] | – | – | – | – | – | – | – | – | – | – | – | – | – | – | – | – | – | – | – | – | Pin catalyzing cis to trans isomerization rate k, Exp. 1 (Pin1; 25 nM Pin1 + 50 mM PO4-): 0.0025 s⁻¹; Pin catalyzing cis to trans isomerization rate k, Exp. 3 (Pin1; 25 nM Pin1 + 50 mM PO4-): 0.00169 s⁻¹; Pin catalyzing cis to trans isomerization rate k, Mean (Pin1; 25 nM Pin1 + 50 mM PO4-): 0.00212 s⁻¹; effect on Pin1 activity (Pin1; 50 mM): inhibited
3 | CO[C@H]1C[C@@H]2CC[C@@H](C)[C@@](O)(O2)C(=O)C(=O)N2CCCC[C@H]2C(=O)O[C@H]([C@H](C)C[C@@H]2CC[C@@H](O)[C@H](OC)C2)CC(=O)[C@H](C)/C=C(\C)[C@@H](O)[C@@H](OC)C(=O)[C@H](C)C[C@H](C)/C=C/C=C/C=C/1C [rapamycin] | recover PACS | 0.00035 s⁻¹ | 0.00038 s⁻¹ | 0.00034 s⁻¹ | 0.0003 s⁻¹ | 0.0003425 s⁻¹ | 0.00041 s⁻¹ | 0.00046 s⁻¹ | 0.00043 s⁻¹ | 0.0004333 s⁻¹ | 0.00034 s⁻¹ | 0.00027 s⁻¹ | 0.00037 s⁻¹ | 0.000315 s⁻¹ | 0.00037 s⁻¹ | 0.00037 s⁻¹ | 0.00034 s⁻¹ | 0.00036 s⁻¹ | 0.00043 s⁻¹ | 0.0005 s⁻¹ | cell surface PPIase activity k, Exp. 2 ([1]; healthy donors ad mixed): 0.00028 s⁻¹; cell surface PPIase activity k, Exp. 3 ([1]; healthy donors bd mixed): 0.00053 s⁻¹; cell surface PPIase activity k, Exp. 4 ([1]; healthy donors bd mixed): 0.00054 s⁻¹; cell surface PPIase activity k, Mean ([1]; healthy donors bd mixed): 0.0005 s⁻¹; cell surface PPIase activity k, Exp. 1 ([1]; healthy donors cd mixed): 0.00036 s⁻¹; cell surface PPIase activity k, Exp. 2 ([1]; healthy donors cd mixed): 0.00026 s⁻¹; cell surface PPIase activity k, Exp. 3 ([1]; healthy donors cd mixed): 0.00026 s⁻¹; cell surface PPIase activity k, Exp. 4 ([1]; healthy donors cd mixed): 0.0002 s⁻¹; cell surface PPIase activity k, Mean ([1]; healthy donors cd mixed): 0.00027 s⁻¹
4 | Pin1: recombinant His-Pin1, parvulin family PPIase | – | – | – | – | – | – | – | – | – | – | – | – | – | – | – | – | – | – | – | – | Pin catalyzing cis to trans isomerization rate k, Exp. 1 (Pin1; 6.25 nM Pin1): 0.00224 s⁻¹; Pin catalyzing cis to trans isomerization rate k, Exp. 2 (Pin1; 6.25 nM Pin1): 0.00228 s⁻¹; Pin catalyzing cis to trans isomerization rate k, Exp. 3 (Pin1; 6.25 nM Pin1): 0.00191 s⁻¹; Pin catalyzing cis to trans isomerization rate k, Mean (Pin1; 6.25 nM Pin1): 0.00214 s⁻¹; Pin catalyzing cis to trans isomerization rate k, Exp. 1 (Pin1; 12.5 nM Pin1): 0.00419 s⁻¹; Pin catalyzing cis to trans isomerization rate k, Exp. 2 (Pin1; 12.5 nM Pin1): 0.00424 s⁻¹; Pin catalyzing cis to trans isomerization rate k, Exp. 3 (Pin1; 12.5 nM Pin1): 0.00418 s⁻¹; Pin catalyzing cis to trans isomerization rate k, Mean (Pin1; 12.5 nM Pin1): 0.0042 s⁻¹; Pin catalyzing cis to trans isomerization rate k, Exp. 1 (Pin1; 25 nM Pin1): 0.00841 s⁻¹; Pin catalyzing cis to trans isomerization rate k, Exp. 2 (Pin1; 25 nM Pin1): 0.00868 s⁻¹; Pin catalyzing cis to trans isomerization rate k, Exp. 3 (Pin1; 25 nM Pin1): 0.00853 s⁻¹; Pin catalyzing cis to trans isomerization rate k, Mean (Pin1; 25 nM Pin1): 0.00854 s⁻¹
5 | C=CC[C@@H]1/C=C(\C)C[C@H](C)C[C@H](OC)[C@H]2O[C@@](O)(C(=O)C(=O)N3CCCC[C@H]3C(=O)O[C@H](/C(C)=C/[C@@H]3CC[C@@H](O)[C@H](OC)C3)[C@H](C)[C@@H](O)CC1=O)[C@H](C)C[C@@H]2OC [FK506] | recover PACS | 0.00026 s⁻¹ | 0.00025 s⁻¹ | 0.00019 s⁻¹ | 0.00029 s⁻¹ | 0.0002475 s⁻¹ | 0.00014 s⁻¹ | 0.00019 s⁻¹ | 0.00016 s⁻¹ | 0.0001625 s⁻¹ | 0.00016 s⁻¹ | 0.00017 s⁻¹ | 0.00015 s⁻¹ | 0.00016 s⁻¹ | 0.00038 s⁻¹ | 0.00031 s⁻¹ | 0.00036 s⁻¹ | 0.000335 s⁻¹ | 0.00021 s⁻¹ | 0.00026 s⁻¹ | effect on viscosity of cell/fibrinogen mixture ([2]; Jurkat T lymphocyte and fibrinogen, shear rate 100-1000 s^-1): reduce the viscosity; effect on viscosity of cells in PBS or fibrinogen solution ([2]; Jurkat cells in PBS alone or fibrinogen solution alone): neither CsA nor FK506 has an effect; cell surface PPIase activity k, Exp. 1 ([1]; healthy donors ac mixed): 0.00016 s⁻¹; cell surface PPIase activity k, Exp. 2 ([1]; healthy donors bc mixed): 0.00029 s⁻¹; cell surface PPIase activity k, Exp. 4 ([1]; healthy donors bd mixed): 0.00031 s⁻¹; cell surface PPIase activity k, Mean ([1]; healthy donors bd mixed): 0.00026 s⁻¹; cell surface PPIase activity k, Exp. 1 ([1]; healthy donors cd mixed): 0.00017 s⁻¹; cell surface PPIase activity k, Exp. 2 ([1]; healthy donors cd mixed): 0.00019 s⁻¹; cell surface PPIase activity k, Exp. 4 ([1]; healthy donors cd mixed): 0.00018 s⁻¹; cell surface PPIase activity k, Mean ([1]; healthy donors cd mixed): 0.00018 s⁻¹
